Columns and labels:
PAO1 in human blood = assay: Antimicrobial activity in blood (ex vivo bacteremia model); assay type: cell-based, Pseudomonas aeruginosa; settings: for duration of control of the infection in blood: human blood infected with PAO1, in the presence of 4 μM D-11; for antibacterial effect in blood (in words): human blood, 5×10^7 CFU/mL PAO1, antibiotic combined with D-11 (4 μM), 4 hours
Method: Human blood of healthy individuals was obtained from Sanquin (certified Dutch organization responsible for meeting the need in healthcare for blood and blood products, https://www.sanquin.nl/) and was infected with 5×10^7 CFU/mL of PAO1. The blood was distributed at 0.5 mL in 2 mL Eppendorf tubes and treated with the antibiotics and peptides at the indicated concentrations at 37 °C for 4 hours. The samples were decimal serially diluted in PBS. Drops of 10 μL of each dilution on LB agar to track the development of infection. The experiment was performed in triplicate.

P. aeruginosa PAO1 = assay: Cutaneous mouse abscess infection model; assay type: in vivo; settings: BALB/c mice, PAO1 2×10^7 CFU; single dose; azithromycin 7.5, chloramphenicol 8, doxycycline 2 mg/kg, each with D-11 10 mg/kg; 20 h post infection
Method: The mouse cutaneous abscess infection model was performed as previously described with minor modifications. 8-week-old specific-pathogen-free female BALB/c mice were used in the experiment. Before infection, 80 μL of 7.5% chloral hydrate were injected intraperitoneally to anaesthetize the mice. PAO1 was grown to an OD600 of 1.0. The bacteria were collected by centrifugation and washed twice with saline. Then the bacteria were resuspended in saline at a concentration of 4 × 10^8 CFU/ml. 50 μL of the bacterial suspension were injected into the right side of the dorsum of the mouse, resulting in 2 × 10^7 CFU per mouse. 30 minutes after the infection, 50 μL saline alone or containing indicated concentration of antibiotic or 10 mg/kg D-11, or a combination of antibiotic and 10 mg/kg D-11 was injected into the infected area. 20 hours post infection, the skin abscess was excised and subjected to homogenization in saline. The live bacteria numbers were determined by plating.

| Structure (SMILES) | duration of control of the infection in blood (PAO1 in human blood) | reductions of CFU in the abscess compared to each individual antibiotic (P. aeruginosa PAO1) | antibacterial effect in blood (in words) (PAO1 in human blood) |
| --- | --- | --- | --- |
| CC[C@H]1OC(=O)[C@H](C)[C@@H](O[C@H]2C[C@@](C)(OC)[C@@H](O)[C@H](C)O2)[C@H](C)[C@@H](O[C@@H]2O[C@H](C)C[C@H](N(C)C)[C@H]2O)[C@](C)(O)C[C@@H](C)CN(C)[C@H](C)[C@@H](O)[C@]1(C)O [Azithromycin] | more than 24 hours | 2–3 log10 |  |
| O=C(N[C@H](CO)[C@H](O)c1ccc([N+](=O)[O-])cc1)C(Cl)Cl [Chloramphenicol] | more than 24 hours | 2–3 log10 | best antibacterial effects |
| CC[C@H]1OC(=O)[C@H](C)[C@@H](O[C@H]2C[C@@](C)(OC)[C@@H](O)[C@H](C)O2)[C@H](C)[C@@H](O[C@@H]2O[C@H](C)C[C@H](N(C)C)[C@H]2O)[C@](C)(OC)C[C@@H](C)C(=O)[C@H](C)[C@@H](O)[C@]1(C)O [Clarithromycin] | more than 24 hours |  |  |
| CO[C@H]1[C@H](OC(=O)c2ccc(C)[nH]2)[C@H](O)[C@@H](Oc2ccc3c(O)c(NC(=O)c4c[nH]c(C(=O)Nc5c(O)c6ccc(O[C@H]7OC(C)(C)[C@@H](OC)[C@H](OC(=O)c8ccc(C)[nH]8)[C@@H]7O)c(C)c6oc5=O)c4C)c(=O)oc3c2C)OC1(C)C [Coumermycin A1] |  |  | relative week antibacterial effects |
| C[C@H]1c2cccc(O)c2C(=O)C2=C(O)[C@]3(O)C(=O)C(C(N)=O)=C(O)[C@@H](N(C)C)[C@@H]3[C@@H](O)[C@@H]21 [Doxycycline] | more than 24 hours | 2–3 log10 | best antibacterial effects |
| CO[C@@H]1[C@@H](OC(N)=O)[C@@H](O)[C@H](Oc2ccc3c(O)c(NC(=O)c4ccc(O)c(CC=C(C)C)c4)c(=O)oc3c2C)OC1(C)C [Novobiocin] |  |  | relative week antibacterial effects |
| CO[C@H]1/C=C/O[C@@]2(C)Oc3c(C)c(O)c4c(O)c(c(/C=N/N5CCN(C)CC5)c(O)c4c3C2=O)NC(=O)/C(C)=C\C=C\[C@H](C)[C@H](O)[C@@H](C)[C@@H](O)[C@@H](C)[C@H](OC(C)=O)[C@@H]1C [Rifampicin] |  |  | best antibacterial effects |

Source: PMC8445441, “Elucidating the mechanism by which synthetic helper peptides sensitize Pseudomonas aeruginosa to multiple antibiotics” (PLoS Pathogens, 2021)
